This is an account of results in PubChem BioAssay (NCI).

This test relates to MDA-MB-468 breast. Briefly: NCI-60 cell line screen, 48 h.

“And” between values parts separate entries of the source, which are not always exact repeats. Equal values may be shown once.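 Exposure lasted 48 hours, with cells grown in 96-well plates and compounds tested at five concentrations. At the GI50, growth is halved. At the TGI there is no net growth.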

`CCC(C)[C@H]1C(=O)O[C@H](C(C)C)C(=O)N(C)[C@@H](C(C)C)C(=O)O[C@H](C(C)C)C(=O)N(C)[C@@H](C(C)C)C(=O)O[C@H](C(C)C)C(=O)N1C` (stereo not given in full): the GI50 was 0.542 µM and the TGI is over 10 µM.
`CCOC(=O)C#Cc1c(CC(=O)OCC)nnn1[C@H]1O[C@@H](CO)[C@@H]2OC(C)(C)O[C@@H]21`: the GI50 is 2.09 µM and the TGI is 4.5 µM.
The corresponding values for `OC(CNC1CCCC1)Cn1c2ccccc2c2ccccc21` (stereo not given) are 40.7 µM and over 100 µM.
Regarding `Clc1ccc2c(c1)-c1ccccc1C1=NCCN12`, the GI50 is 1.54 µM and the TGI came to 3.15 µM.
The corresponding values for `COc1ccc(/C=C/C(=O)c2cc3c(N)c(C(=O)Nc4ccccc4)sc3nc2C)cc1` are 0.179 µM and over 41.7 µM.
For `O=C(/C=C/c1ccc(C(F)(F)F)cc1)c1ccc(Nc2nc(NCCO)nc(N3CCOCC3)n2)cc1` the same measures were 1.8 µM and 3.86 µM.
The corresponding values for `CN1CCn2c(c(Sc3ccc(C(=O)NO)cc3)c3ccccc32)C1=O` are 1.43 µM and 3.25 µM.
For `OC(CNc1ccnc2cc(Cl)ccc12)CNC1CCCCC1` (stereo not given), the GI50 was 1.7 µM and the TGI amounted to 3.79 µM.
For `Cc1ccc(S(=O)(=O)Nc2nc3ccccc3nc2Nc2ccc3nsnc3c2)cc1`, the GI50 is 3.06 µM and 2.66 µM; the TGI is 13.5 µM and 9.26 µM.
`COC(=O)[C@@H](C)C[C@H](Cc1ccccc1)NC(=O)c1csc([C@@H](C[C@H](C(C)C)N(C)C(=O)C2(NC(=O)[C@H]3CCCCN3C)CC2)OC(C)=O)n1`: the GI50 is 0.00251 µM.
As to `CN(C)c1ccc(O)c2c1C[C@H]1C[C@H]3[C@H](N(C)C)C(=O)C(C(N)=O)=C(O)[C@@]3(O)C(=O)C1=C2O`, the GI50 is 3.24 µM and the TGI is 35.1 µM.
For `NCCCCN(Cc1nc2ccccc2[nH]1)[C@H]1CCCc2cccnc21` the same measures were 10.4 µM and 30.8 µM.
Take `COCCNC(=O)c1ccc(-c2nc3ccc4[nH]ncc4c3c3c2CCCC3)cc1`: the GI50 is 2.46 µM and the TGI worked out at 50 µM.
For `CCCCCCCCCCCC[n+]1ccc(C(N)=O)cc1` the same measures were 0.633 µM and 2.92 µM.
`COc1ccc2nc(C)cc(Nc3ccccc3O)c2c1`: the GI50 was 13.8 µM and the TGI was found to be 45.6 µM.
For `COc1ccc([C@H]2[C@H](O)C(=O)N2c2cc(OC)c(OC)c(OC)c2)cc1Cl`, the GI50 was under 0.01 µM and the TGI is over 100 µM.
Regarding `COc1ccc2c(c1)OC(N)=C(C#N)C2c1ccc(F)cc1` (stereo not given), the GI50 is 0.401 µM and the TGI was determined as 33.9 µM.
As for `N=C(N)c1ccc(-c2ccc(-c3cccs3)s2)nc1`, the GI50 was 0.0732 µM and the TGI worked out at 0.779 µM.
With `Cc1nn(-c2nc3ccccc3[nH]2)c2c1C(c1ccc3c(c1)OCO3)CC(=O)N2` (stereo not given), the GI50 is 2.32 µM and the TGI turned out to be 6.76 µM.
In the case of `O=C1/C(=C/c2ccc(Cl)cc2)COc2ccc(O)c(O)c21`, the GI50 was 1.43 µM and the TGI is 3.22 µM.
Take `C=CC(=O)Nc1cccc(C)c1Nc1ncc2cc(-c3c(Cl)c(OC)cc(OC)c3Cl)ccc2n1`: the GI50 is 1.87 µM and the TGI stood at 6.28 µM.
Consider `C=C1CC[C@@H]2[C@](C)(COC(C)=O)[C@H](OC(C)=O)CC[C@@]2(C)[C@@H]1C/C=C1/C(=O)OC[C@H]1OC(C)=O`, for which the GI50 was 2.04 µM and the TGI was determined as 5.69 µM.
For the compound `CCCN(CCC)C(=O)[C@H](CC)[C@@H]1CC[C@@H](C)[C@@H]([C@H](C)[C@@H](O)[C@@H](C)C(=O)[C@H](CC)C2O[C@]3(C=C[C@@H](O)[C@]4(CC[C@@](C)([C@H]5CC[C@](O)(CC)[C@H](C)O5)O4)O3)[C@H](C)C[C@@H]2C)O1` (stereo not given in full), the GI50 was 1.72 µM and the TGI is 5.33 µM.
For `O=Cc1ccc(O)c2ncccc12` the same measures were 4.14 µM and over 100 µM.
The corresponding values for `CS(=O)(=O)Nc1cc(-c2ccc3ncnc(Nc4ccc5c(cnn5Cc5ccccc5F)c4)c3c2)cnc1Cl` are 0.609 µM and 2.56 µM.
As to `C=C1C(=O)O[C@H]2[C@H]1CC/C(CNS(=O)(=O)c1cccc3ccccc13)=C\CC[C@@]1(C)O[C@@H]21`, the GI50 was 1.09 µM and the TGI was determined as 3.15 µM.
Regarding `O=C(CCCCCCC(=O)Nc1ccc2c(c1)/C(=C/c1ccc[nH]1)C(=O)N2)NO`, the GI50 was 0.187 µM and the TGI is 2.09 µM.
For `COc1cccc2c(=O)c3c(sc12)c(NCCN(C)C)nc1ccccc13` the same measures were 1.5 µM and 3.15 µM.
For `N#CC1=C(N)Oc2c(sc3c(F)cccc23)C1c1ccc(F)cc1` (stereo not given) the same measures were 0.452 µM and 15.4 µM.
The corresponding values for `COC(=O)[C@@]1(O)C[C@H]2O[C@]1(C)n1c3ccccc3c3c4c(c5c6ccccc6n2c5c31)C(=O)NC4` are 1.34 µM and 3.06 µM.
As for `O=C(N/N=C\c1ccc(N(CCCl)CCCl)cc1Cl)c1cccnc1`, the GI50 is 0.0458 µM and the TGI was found to be 0.328 µM.
For `Oc1ccc(N=Nc2ccc(N=Nc3ccccc3)cc2)cc1` the same measures were 4.41 µM and 19.6 µM.
`CCCCCN(CCCCC)CC(O)c1cc2c(c3ccccc13)CCCC2` (stereo not given): the GI50 was 4.34 µM and 12.2 µM; the TGI was 17.2 µM and 28 µM.
